Results from US8304452B2, “Radical scavenger and active oxygen eliminating agent” (InBiotex Inc., priority 2005, dated 2012).

What was measured:
Format in all cases: biochemical
[1] = Superoxide anion-scavenging activity, DMPO spin trapping ESR (Example 8); conditions: FIG. 8
Protocol: In a 50 mM phosphate buffer (pH 7.8), 500 μM xanthine and 75 mU/mL xanthine oxidase reacted together. The generated superoxide anion (O^2−) was assayed with a spin trapping agent (DMPO) by the electron spin resonance method (ESR). The resulting signal intensity (I) was normalized with the signal intensity of the inner standard manganese (S). The resulting value was determined as the relative intensity (RI), for comparison between the value in case of the addition of the test substance and the value in case of the addition of PBS. The ESR was measured under the following conditions. MicroWave Powder: 8 mW; Field: 335±5 mT; Scan Time: 2 min; Mod.: 0.1 mT; Amplitude:×125-400; Time Constant: 0.03 sec.

[2] = system: human LDL; experiment: Effect on the oxidation of LDL in human blood, TBARS (Example 11); conditions: LDL + 5 μM CuSO4, TBARS; FIG. 11
Protocol: LDL was prepared by a fractionation and centrifugation method. A fraction at a specific gravity of 1.019 to 1.063 g/mL in serum was defined as human LDL. 5 μM CuSO4, 5-S-GAD (3 to 100 μM) and N-acetyl-carnosine (100 μM to 10 mM) or L-carnosine (10 μM to 10 mM) were added to 0.2 mg/mL LDL, for incubation at 37° C. for 3 hours. After termination of the incubation, TEARS (a substance reactive with thiobarbituric acid) was assayed. Although the TBA reaction is a non-specific reaction, the reaction is used for a method of assaying various lipid peroxide products including malone dialdehyde. An experiment of peroxidation with copper sulfate was done twice (N=2).
An aqueous solution containing 3.75 mg/mL thiobarbituric acid (TBA), 150 mg/mL trichloroacetic acid (TCA) and 0.25 N hydrochloric acid (HCl) was prepared as the TBA reagent, while standard solutions (2, 5, 10, 20, 40 μM) of tetramethoxypropane were prepared. 100 μL each of an LDL sample or a standard solution was added together with 200 μL of the TBA reagent into an Eppendorf tube (1.5 mL), which was then sealed with a cap for thorough mixing. […] The supernatant was assayed of the absorbance (535 nm). Based on the absorbance of the standard solution, a standard curve was prepared. Based on the standard curve, the amount of TBARS in the LDL sample was calculated (in nmol/mg LDL protein) (see FIG. 11).

[3] = Superoxide anion-scavenging activity, chemiluminescence, versus N-acetyl-L-carnosine (Example 7); conditions: lucigenin chemiluminescence; FIG. 7
Protocol: In a 50 mM carbonate buffer (pH 10) containing 200 μM lucigenin, 100 μM xanthine and 1 mU/mL xanthine oxidase reacted together. The chemiluminescence level depending on the generated superoxide anion (O^2−) was assayed for 10 minutes. The area under the curve indicating the total chemiluminescence over the 10 minutes was calculated. A group to which PBS(−) instead of the test substance solution was added at the same amount as that of the solution, was defined as a control. In the same manner as in Example 3, the effect of 5-S-GAD or N-acetyl-L-carnosine added on the increase of chemiluminescence was examined. The suppressive activity thereof was defined as superoxide anion-scavenging activity (%) (see FIG. 7).

[4] = DPPH-scavenging action (Example 2); conditions: for Radical-scavenging ratio (%): DPPH, ambient temperature, 5 minutes, mean, n=2
Protocol: DPPH (1,1-diphenyl-2-picrylhydrazyl) is one of nitrogen radicals and is a very stable radical, which is commercially available as a black-purple crystal (Wako Pure Chemical, Co., Ltd., etc.). N-β-Alanyl-5-S-glutathionyl-3,4-dihydroxyphenylalanine (5-S-GAD) (see Table 2) or Carnosine (under trade name) (see Table 3) was added to an ethanol solution of […] DPPH radical, for reaction at ambient temperature for 5 minutes (see the following reaction scheme). Instead of the test reagent, distilled water was added to the ethanol solution, which was used as a background. The DPPH absorbance at 517 nm was assayed, to calculate the scavenging ratio (%) of the DPPH radical according to the following equation. The scavenging ratio was defined as radical scavenger activity (mean, n=2; see Table 2, Table 3 and FIG. 2).
Radical-scavenging ratio (%)=[assay value of background (mean)−assay value of solution at each concentration]/background assay value (mean)]×100

[5] = system: human LDL; experiment: Lipid peroxide-suppressing action: CuSO4-induced LDL oxidation, TBARS assay (Example 1); conditions: for Amount of TBARS: 0.2 mg/mL LDL + 5 μM CuSO4, 37° C., 3 hours, mean, n=2
Protocol: As an action of capturing free group (free radical-scavenging action), the effect of N-β-alanyl-5-S-glutathionyl-3,4-dihydroxyphenylalanine (5-S-GAD) on LDL oxidation was examined. As controls, dopamine and Carnosine (under trade name; N-acetylcarnosine as the ingredient name) used as eye drops for cataract were used. LDL was prepared by a fractionation and centrifugation method. A fraction at a specific gravity of 1.019 to 1.063 g/mL in serum was defined as human LDL. 5 μM CuSO4, 5-S-GAD (3 to 100 μM) and N-acetyl-carnosine (100 μM to 10 mM) or L-carnosine (10 μM to 10 mM) were added to 0.2 mg/mL LDL, for incubation at 37° C. for 3 hours. After termination of the incubation, TBARS (a substance reactive with thiobarbituric acid) was assayed. Although the TBA reaction is a non-specific reaction, the reaction is used for a method of assaying various lipid peroxide products including malone dialdehyde. An experiment of peroxidation with copper sulfate was done twice (N=2). An aqueous solution containing 3.75 mg/mL thiobarbituric acid (TBA), 150 mg/mL trichloroacetic acid (TCA) and 0.25 N hydrochloric acid (HCl) was prepared as the TBA reagent, while tetramethoxypropane was used to prepare standard solutions (2, 5, 10, 20, 40 μM). 100 μL each of an LDL sample or a standard solution was added together with 200 μL of the TBA reagent into an Eppendorf tube (1.5 mL), which was then sealed with a cap for thorough mixing. After heating at 95° C. for 15 minutes, the resulting mixture was cooled in water and centrifuged at 3000 rpm for 5 minutes. The supernatant was assayed of the absorbance (535 nm). Based on the absorbance of the standard solutions, a standard curve was prepared. Based on the standard curve, the amount of TBARS in the LDL sample was calculated (in nmol/mg LDL protein) (mean, n=2, see Table 1 and FIG. 1).

NCCC(=O)N[C@@H](Cc1cc(O)c(O)c(SC[C@H](NC(=O)CC[C@H](N)C(=O)O)C(=O)NCC(=O)O)c1)C(=O)O [5-S-GAD, N-β-alanyl-5-S-glutathionyl-3,4-dihydroxyphenylalanine]
superoxide anion (O^2−)-scavenging action compared with TEMPOL (in words) [1]: excellent superoxide anion (O^2−)-scavenging action compared with TEMPOL
anti-oxidation action compared with N-acetyl-carnosine and L-carnosine (in words) [2]: excellent anti-oxidation action compared with N-acetyl-carnosine and L-carnosine
superoxide anion (O^2−)-scavenging action compared with N-acetyl-L-carnosine (in words) [3]: excellent superoxide anion (O^2−)-scavenging action compared with N-acetyl-L-carnosine
Radical-scavenging ratio (%) ([4]; 1 μM added): 3.918%
Radical-scavenging ratio (%) ([4]; 3 μM added): 13.891%
Radical-scavenging ratio (%) ([4]; 10 μM added): 73.762%
Radical-scavenging ratio (%) ([4]; 30 μM added): 93.487%
action for scavenging the DPPH radical (in words) ([4]; summary of Table 2, Table 3 and FIG. 2): strong actions for scavenging the DPPH radical
Amount of TBARS ([5]; 10 μM added): 85.683 nmol/mg LDL protein
Amount of TBARS ([5]; 30 μM added): 4.290 nmol/mg LDL protein
Amount of TBARS ([5]; 100 μM added): 2.649 nmol/mg LDL protein
anti-oxidation action, level relative to Carnosine (under trade name) ([5]; LDL oxidation, TBARS): 10 fold
anti-oxidation action, level relative to dopamine ([5]; LDL oxidation, TBARS): the same level as that of dopamine
